Laboratory results: ChEMBL document CHEMBL4699652, “Proline Hinged Amphipathic α-Helical Peptide Sensitizes Gram-Negative Bacteria to Various Gram-Positive Antibiotics” (J Med Chem, 2020)
Active and inactive are the calls of the source. The rule behind the calls is not given here.

How the values were obtained:
[1] = tested on: Erythrocyte; experiment: Hemolytic activity in human red blood cells assessed as induction of hemoglobin release incubated for 4 hrs by microplate reader based assay; format: cell-based
[2] = tested on: Escherichia coli; experiment: Sensitization of rifampicin-induced antimicrobial activity against Escherichia coli ATCC 25922 assessed as inhibition of bacterial growth at 4 to 8 ug/ml incubated for 18 hrs by CLSI based method; format: functional; conditions: dose microg/ml 4-8
[3] = tested on: Escherichia coli; experiment: Sensitization of clarithromycin-induced antimicrobial activity against Cst-resistant Escherichia coli isolates assessed as inhibition of bacterial growth at 8 ug/ml incubated for 18 hrs by CLSI based method; format: functional, organism-based; conditions: dose 8.0 µg/ml
[4] = tested on: Staphylococcus aureus; experiment: Sensitization of rifampicin-induced antimicrobial activity against methicillin-resistant Staphylococcus aureus assessed as inhibition of bacterial growth at 8 ug/ml incubated for 18 hrs by CLSI based method; format: functional, organism-based; conditions: dose 8.0 µg/ml
[5] = tested on: Escherichia coli; experiment: Induction of cell lysis in Escherichia coli at 5 uM by transmission electron microscopy; format: functional, organism-based
[6] = tested on: Cell membrane; experiment: Induction of membrane permeability in Escherichia coli assessed as increase in fine surface roughness at 25 uM by atomic force microscopy; format: subcellular
[7] = tested on: Lipopolysaccharide (LPS); experiment: Binding affinity to LPS in Escherichia coli D21e19 assessed as localization in membrane regions at 1 uM using TAMRA-labeled compound by confocal fluorescence microscopy
[8] = tested on: Lipopolysaccharide (LPS); experiment: Binding affinity to Escherichia coli LPS in POPE/POPG lipid layers containing wild-type LPS by SPR assay
[9] = tested on: Escherichia coli; experiment: Binding affinity to inner membrane using POPE/POPG (7/3) by SPR assay
[10] = tested on: Cell membrane; experiment: Induction of cell membrane fluidity changes in Escherichia coli ATCC 25922 by Laurdan-dye based fluorescence assay; format: subcellular
[11] = tested on: Cell membrane; experiment: Induction of cell membrane fluidity changes in Escherichia coli D21f2 by Laurdan-dye based fluorescence assay; format: subcellular
[12] = tested on: Escherichia coli; experiment: Antimicrobial activity against Escherichia coli ATCC 25922 assessed as reduction in cell viability at 10 to 10000 uM by propidium iodide staining based assay; format: functional, organism-based; conditions: dose microM 10-10000
[13] = tested on: Escherichia coli; experiment: Antimicrobial activity against NDM-1 producing carbapenem-resistant Escherichia coli infected in ICR CD1 mouse model of sepsis protection model assessed as increase in mouse survival at 40 mg/kg, sc QD; format: functional, organism-based
[14] = tested on: Escherichia coli; experiment: Sensitization of linezolid-induced antimicrobial activity against Escherichia coli ATCC 25922 infected in ICR CD1 mouse model of sepsis protection model assessed as mouse survival at 30 mg/kg, ip q1h x 8 hrs for 1 days co-treated with 25 mg/kg, sc q4h x 8 hrs linezolid; format: functional; conditions: ATCC 25922, 24 h, time 1 day

Ac-KLLKLLKKPLKLLK-NH2
HC10 [1]: > 1280 µM | fold change (FC) [2]: <=212 | Activity [3]: Active | Activity [4]: Active | Activity [5]: inactive | Activity [6]: Active | Activity [7]: Active | Activity [8]: Active | Activity [9]: Active | Activity [10]: Dose-dependent effect | Activity [11]: inactive | Activity [12]: inactive | Activity [13]: inactive | survival at 30 mg/kg [14]: 90%
